# According to patent publication US5004747A, “Isoquinolinones” (May & Baker Limited, priority 1988, dated 1991):
# Target: T1, rat hepatic microsomal HMG CoA reductase (Rattus norvegicus, UniProt P51639)
# T1 construct: rat hepatic microsomal HMG CoA reductase; from tissue; host or cells: rat liver microsomes
# T1 sequence (P51639 1-887): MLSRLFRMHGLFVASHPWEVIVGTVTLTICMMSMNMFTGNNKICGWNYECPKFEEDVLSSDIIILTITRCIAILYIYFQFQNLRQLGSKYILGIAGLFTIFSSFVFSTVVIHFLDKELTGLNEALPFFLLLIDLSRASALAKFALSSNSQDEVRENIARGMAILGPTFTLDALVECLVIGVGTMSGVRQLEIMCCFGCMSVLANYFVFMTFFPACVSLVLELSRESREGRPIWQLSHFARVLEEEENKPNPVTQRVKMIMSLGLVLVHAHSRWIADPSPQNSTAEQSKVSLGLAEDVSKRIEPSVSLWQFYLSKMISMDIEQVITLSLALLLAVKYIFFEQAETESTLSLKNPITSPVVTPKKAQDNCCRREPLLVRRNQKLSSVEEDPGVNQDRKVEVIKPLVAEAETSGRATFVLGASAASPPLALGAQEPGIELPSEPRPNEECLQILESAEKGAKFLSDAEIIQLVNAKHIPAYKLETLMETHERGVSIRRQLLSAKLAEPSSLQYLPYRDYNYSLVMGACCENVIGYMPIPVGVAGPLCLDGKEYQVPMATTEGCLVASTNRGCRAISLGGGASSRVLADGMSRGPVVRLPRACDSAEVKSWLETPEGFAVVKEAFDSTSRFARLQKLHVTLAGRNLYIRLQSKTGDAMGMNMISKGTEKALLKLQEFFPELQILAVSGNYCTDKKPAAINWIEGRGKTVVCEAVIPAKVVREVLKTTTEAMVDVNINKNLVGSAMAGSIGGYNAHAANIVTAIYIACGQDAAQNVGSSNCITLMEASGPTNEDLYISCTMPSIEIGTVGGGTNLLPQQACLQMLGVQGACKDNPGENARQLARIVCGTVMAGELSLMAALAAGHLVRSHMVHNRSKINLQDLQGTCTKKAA
# Assay: inhibition of rat hepatic microsomal HMG CoA reductase activity in vitro (Table I)
# Format: biochemical
# Settings: for inhibition at 0.082 µg/mL: 0.082 micrograms/ml; for inhibition at 0.25 µg/mL: 0.25 micrograms/ml; for inhibition at 0.74 µg/mL: 0.74 micrograms/ml; for inhibition at 2.22 µg/mL: 2.22 micrograms/ml; for inhibition at 6.66 µg/mL: 6.66 micrograms/ml; for inhibition at 20 µg/mL: 20.0 micrograms/ml; for inhibition at 0.0274 µg/mL: 0.0274 micrograms/ml; for inhibition at 2 µg/mL: 2.0 micrograms/ml; for inhibition at 0.24 µg/mL: 0.24 micrograms/ml
# From the text: In the table the concentrations of the test compounds are expressed in micrograms/ml.
SMILES,inhibition at 0.082 µg/mL [%],inhibition at 0.25 µg/mL [%],inhibition at 0.74 µg/mL [%],inhibition at 2.22 µg/mL [%],inhibition at 6.66 µg/mL [%],inhibition at 20 µg/mL [%],inhibition at 0.0274 µg/mL [%],inhibition at 2 µg/mL [%],inhibition at 0.24 µg/mL [%],inhibition at 0.0824 µg/mL (0.0824 micrograms/ml) [%]
"CC(C)c1c(/C=C/[C@@H]2C[C@@H](O)CC(O)O2)n(-c2ccc(F)cc2)c(=O)c2ccccc12 (mixture of isomers) [Compound M, (2RS,4R,6S)-(E)-2,4-dihydroxy-6-[2-(2-(4-fluorophenyl)-4-isopropyl-1-oxo-1,2-dihydroisoquinolin-3-yl)ethen-1-yl]-3,4,5,6-tetrahydro-2H-pyran]",27,18,31,44,56,72,–,–,–,–
"CC(C)c1c(/C=C/[C@@H]2C[C@@H](O)CC(=O)O2)n(CC2CCCCC2)c(=O)c2ccccc12 [AB, (4R,6S)-(E)-6-(2-(2-cyclohexylmethyl-4-isopropyl-1-oxo-1,2-dihydroisoquinolin-3-yl)ethen-1-yl)-4-hydroxy-3,4,5,6-tetrahydro-2H-pyran-2-one]",–,–,20,41,66,–,–,–,–,–
"CC(C)n1c(/C=C/[C@@H](O)C[C@@H](O)CC(=O)O)c(-c2ccc(F)cc2)c2ccccc2c1=O [AF, sodium (3R,5S)-(E)-3,5-dihydroxy-7-(4-(4-fluorophenyl)-2-isopropyl-1-oxo-1,2-dihydroisoquinolin-3-yl)hept-6-enoate]",38,65,83,93,95,–,15,–,–,–
"CC(C)c1c(/C=C/[C@@H](O)C[C@@H](O)CC(=O)O)n(-c2ccc(F)cc2)c(=O)c2ccccc12 [AG, sodium (3R,5S)-(E)-3,5-dihydroxy-7-(2-(4-fluorophenyl)-4-isopropyl-1-oxo-1,2-dihydroisoquinolin-3-yl)hept-6-enoate]",57,74,89,96,–,–,15,–,–,–
"CC(C)c1c(CC[C@@H]2C[C@@H](O)CC(=O)O2)n(-c2ccc(F)cc2)c(=O)c2ccccc12 [AH, (4R,6R)-6-[2-{2-(4-fluorophenyl)-4-isopropyl-1-oxo-1,2-dihydroisoquinolin-3-yl}ethyl]-4-hydroxy-3,4,5,6-tetrahydro-2H-pyran-2-one]",33,31,47,61,79,91,–,–,–,–
"CC(C)n1c(CC[C@@H]2C[C@@H](O)CC(=O)O2)c(-c2ccc(F)cc2)c2ccccc2c1=O [AI, (4R,6R)-6-(2-(4-(4-fluorophenyl)-2-isopropyl-1-oxo-1,2-dihydroisoquinolin-3-yl)ethyl)-4-hydroxy-3,4,5,6-tetrahydro-2H-pyran-2-one]",16,38,62,81,92,–,–,–,–,–
"Cn1c(/C=C/C(O)CC(O)CC(=O)O)c(-c2ccccc2)c2ccccc2c1=O (stereo not drawn) [B, (E)-3,5-dihydroxy-7-(2-methyl-1-oxo-4-phenyl-1,2-dihydroisoquinolin-3-yl)hept-6-enoic acid]",–,–,–,–,–,65,–,5,–,–
"Cn1c(/C=C/C(O)CC(O)CC(=O)O)c(-c2ccccc2)c2ccccc2c1=O (stereo not drawn) [BA, sodium (E)-3,5-dihydroxy-7-(2-methyl-1-oxo-4-phenyl-1,2-dihydroisoquinolin-3-yl)hept-6-enoate]",–,–,–,–,–,61,–,0,–,–
"CCOC(=O)CC(O)CC(O)/C=C/c1c(-c2ccc(F)cc2)c2ccccc2c(=O)n1C(C)C (stereo not drawn) [Compound D, ethyl (E)-3,5-dihydroxy-7-[4-(4-fluorophenyl)-2-isopropyl-1-oxo-1,2-dihydroisoquinolin-3-yl]hept-6-enoate]",–,–,35,62,85,94,–,–,11,–
"CC(C)n1c(/C=C/C(O)CC(O)CC(=O)O)c(-c2ccc(F)cc2)c2ccccc2c1=O (stereo not drawn) [Compound E, (E)-3,5-dihydroxy-7-[4-(4-fluorophenyl)-2-isopropyl-1-oxo-1,2-dihydroisoquinolin-3-yl]hept-6-enoic acid]",–,–,28,61,82,94,–,–,15,–
"CC(C)n1c(/C=C/C(O)CC(O)CC(=O)O)c(-c2ccc(F)cc2)c2ccccc2c1=O (stereo not drawn) [Compound F, sodium (E)-3,5-dihydroxy-7-[4-(4-fluorophenyl)-2-isopropyl-1-oxo-1,2-dihydroisoquinolin-3-yl]hept-6-enoate]",–,–,59,80,91,97,–,–,37,–
"CC(C)n1c(/C=C/C2CC(O)CC(=O)O2)c(-c2ccc(F)cc2)c2ccccc2c1=O (stereo not drawn) [Compound G, (E)-4-hydroxy-6-[2-{4-(4-fluorophenyl)-2-isopropyl-1-oxo-1,2-dihydroisoquinolin-3-yl}ethenyl]-3,4,5,6-tetrahydro-2H-pyran-2-one]",14,29,58,81,93,97,–,–,–,–
"CC(C)c1c(/C=C/[C@@H]2C[C@@H](O)CC(=O)O2)n(-c2ccc(F)cc2)c(=O)c2ccccc12 [Compound I, (4R,6S)-(E)-4-hydroxy-6-[2-{2-(4-fluorophenyl)-4-isopropyl-1-oxo-1,2-dihydroisoquinolin-3-yl}ethen-1-yl]-3,4,5,6-tetrahydro-2H-pyran-2-one]",48,72,88,96,–,–,25,–,–,–
"COC(=O)C[C@H](O)C[C@H](O)/C=C/c1c(-c2ccc(F)cc2)c2ccccc2c(=O)n1C(C)C [Compound J, methyl (3R,5S)-(E)-3,5-dihydroxy-7-[4-(4-fluorophenyl)-2-isopropyl-1-oxo-1,2-dihydroisoquinolin-3-yl]hept-6-enoate]",28,55,79,92,–,–,13,–,–,–
"CC(C)n1c(/C=C/[C@@H]2C[C@@H](O)CC(=O)O2)c(-c2ccc(F)cc2)c2ccccc2c1=O [H, (4R,6S)-(E)-4-hydroxy-6-[2-{4-(4-fluorophenyl)-2-isopropyl-1-oxo-1,2-dihydroisoquinolin-3-yl}-ethen-1-yl]-3,4,5,6-tetrahydro-2H-pyran-2-one]",49,66,85,95,99,100,–,–,–,–
"COc1ccc(-n2c(/C=C/[C@@H]3C[C@@H](O)CC(=O)O3)c(C(C)C)c3ccccc3c2=O)cc1 [N, (4R,6S)-(E)-4-hydroxy-6-(2-(2-(4-methoxyphenyl)-4-isopropyl-1-oxo-1,2-dihydroisoquinolin-3-yl)ethen-1-yl)-3,4,5,6-tetrahydro-2H-pyran-2-one]",–,13,34,59,80,–,–,–,–,16
"Cc1cc(-n2c(/C=C/[C@@H]3C[C@@H](O)CC(=O)O3)c(C(C)C)c3ccccc3c2=O)ccc1F [P, (4R,6S)-(E)-6-(2-(2-(4-fluoro-3-methylphenyl)-4-isopropyl-1-oxo-1,2-dihydroisoquinolin-3-yl)ethen-1-yl)-4-hydroxy-3,4,5,6-tetrahydro-2H-pyran-2-one]",27,39,63,81,90,90,–,–,–,–
"CC(C)c1c(/C=C/[C@@H]2C[C@@H](O)CC(=O)O2)n(-c2ccc(Cl)cc2)c(=O)c2ccccc12 [R, (4R,6S)-(E)-6-(2-(2-(4-chlorophenyl)-4-isopropyl-1-oxo-1,2-dihydroisoquinolin-3-yl)ethen-1-yl)-4-hydroxy-3,4,5,6-tetrahydro-2H-pyran-2-one]",21,35,56,78,91,97,–,–,–,–
"Cc1c(/C=C/[C@@H]2C[C@@H](O)CC(=O)O2)n(-c2ccc(F)cc2)c(=O)c2ccccc12 [V, (4R,6S)-(E)-6-(2-(2-(4-fluorophenyl)-4-methyl-1-oxo-1,2-dihydroisoquinolin-3-yl)ethen-1-yl)-4-hydroxy-3,4,5,6-tetrahydro-2H-pyran-2-one]",–,–,10,40,67,85,–,–,–,–
